Assay [1] relates to TNFα production by THP-1 cells. The experiment in a line: TNF-alpha production by macrophages. The assay is classed as cell-based, human. The note with it: THP-1 cells stimulated with opsonized zymosan, 24 hours; read-out: IC50 TNFα production. Put shortly:
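THP-1 cells (1×10^6 per well, 10% FCS) were stimulated with 1 mg/ml serum-opsonized zymosan and incubated with drug in triplicate for 24 h at 37 °C. TNFα in the supernatants was quantified by sandwich ELISA (HRP/TMB read-out) against a recombinant human TNFα standard curve.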

Assay [2] has as its system MCP-1 production by THP-1 cells. As to the kind of experiment: MCP-1 production by macrophages. The format is cell-based, human. The note with it: THP-1 cells stimulated with opsonized zymosan, 24 hours; read-out: IC50 MCP-1 production. In a few lines: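 THP-1 cells (1×10^6/well, 10% FCS) stimulated with 1 mg/ml serum-opsonized zymosan plus compound added from DMSO stocks at 1/1000, 24 h at 37° C. MCP-1 in supernatants quantified by sandwich ELISA (TMB read-out) against a recombinant human MCP-1 standard curve, triplicates, background-subtracted.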

Assay [3] concerns nitric oxide production by macrophages (murine macrophage cell line RAW 264.7). As to the kind of experiment: Nitric oxide production by macrophages. The assay is classed as cell-based.
The subject of another assay is S. pyogenes C721. As to the kind of experiment: MIC microtitre broth dilution, S. pyogenes. The assay is classed as cell-based. The note with it: S. pyogenes C721 wt Gram+, Todd Hewitt broth. As for the experimental part: (§1) MIC assays were conducted essentially as described by Amsterdam, D 1996, “Susceptibility testing of antimicrobials in liquid media”, p. 52-111, in Loman, V, ed. Antibiotics in laboratory medicine, 4th ed Williams and Wilkins, Baltimore, Md.
In general terms: In broth dilution the organism is exposed to a series of concentrations in liquid medium.

The subject of assay [4] is P. aeruginosa PAE/K799 H187. The experiment in a line: MIC microtitre broth dilution, P. aeruginosa. The format is cell-based. Conditions: P. aeruginosa PAE/K799 H187 wt Gram−, 24 h. As for the experimental part: as §1
The next assay deals with S. epidermidis C621. The experiment in a line: MIC microtitre broth dilution, S. epidermidis. The assay is classed as cell-based. The note with it: S. epidermidis C621 wt Gram+, 24 h. Here is the method:
as §1

Another assay concerns E. coli UB1005 C498. The experiment in a line: MIC microtitre broth dilution, E. coli. The note with it: E. coli UB1005 C498 wt Gram−, 24 h. The assay is classed as cell-based. Here is the method:
as §1

Assay [5] concerns K. pneumoniae ATCC13883 C238. The experiment in a line: MIC microtitre broth dilution, K. pneumoniae. The format is cell-based. The note with it: K. pneumoniae ATCC13883 C238 wt Gram−, 24 h. Here is the method: as §1
The test system of a further assay is S. aureus ATCC25923 C622. The experiment in a line: MIC microtitre broth dilution, S. aureus. Conditions: S. aureus ATCC25923 C622 wt Gram+, 24 h. The assay is classed as cell-based. As for the experimental part: as §1
The next assay has as its system Smooth muscle cells. As to the kind of experiment: Proliferation of smooth muscle cells. The format is cell-based. Conditions: 72 hours, CYQUANT; read-out: IC50 proliferation of smooth muscle cells. In a few lines: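 Smooth muscle cells at 600 cells/well, exposed to paclitaxel (DMSO stocks 10^−8 to 10^−2 M) in triplicate for 72 h at 37 °C. Proliferation read with CyQUANT GR dye in lysis buffer.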

Molecules are shown by their SMILES.

In the case of `C/C(=N\N=C(N)N)c1cc(NC(=O)CCCCCCCCC(=O)Nc2cc(/C(C)=N/N=C(N)N)cc(/C(C)=N/N=C(N)N)c2)cc(/C(C)=N/N=C(N)N)c1` [CNI-1493], the IC50 in assay [1] is 0.15 nM; in assay [2] it was 0.02 nM; in assay [3] it was 249 nM.

As for `CC[C@@]1(O)C(=O)OCc2c1cc1n(c2=O)Cc2cc3ccccc3nc2-1` [camptothecin], the Minimum inhibitory concentration entry is on record as “N” in the assay with S. pyogenes C721; “N” in [4]; 10^−4 Molar in the assay with S. epidermidis C621; “N” in the assay on E. coli UB1005 C498; “N” in assay [5]; “N” with S. aureus ATCC25923 C622.

`N.N.[Cl][Pt][Cl]` [cisplatin]: the Minimum inhibitory concentration entry in the assay with S. pyogenes C721 is given as “N”; in assay [4], 10^−4 Molar; with S. epidermidis C621 it was “N”; in the assay with E. coli UB1005 C498, “N”; in assay [5], “N”; in the assay on S. aureus ATCC25923 C622, “N”.

As to `Nc1ccn([C@@H]2O[C@H](CO)[C@@H](O)[C@@H]2O)c(=O)n1` [cytarabine], the Minimum inhibitory concentration entry (in the assay on S. pyogenes C721; in assay [4]; in the assay on S. epidermidis C621; in the assay with E. coli UB1005 C498; in assay [5]; with S. aureus ATCC25923 C622) was “N” throughout. The IC50 in the assay with Smooth muscle cells amounted to 85 nM.

`COc1cccc2c1C(=O)c1c(O)c3c(c(O)c1C2=O)C[C@@](O)(C(=O)CO)C[C@@H]3O[C@H]1C[C@H](N)[C@H](O)[C@H](C)O1` [doxorubicin]: the Minimum inhibitory concentration is recorded as 10^−7 Molar in the assay with S. pyogenes C721; 10^−5 Molar in assay [4]; 10^−6 Molar in the assay on S. epidermidis C621; 10^−4 Molar with E. coli UB1005 C498; 10^−6 Molar in [5]; 10^−5 Molar in the assay with S. aureus ATCC25923 C622. The IC50 in the assay with Smooth muscle cells turned out to be 64 nM.

In the case of `COc1cc([C@@H]2c3cc4c(cc3[C@@H](O[C@@H]3O[C@@H]5CO[C@@H](C)O[C@H]5[C@H](O)[C@H]3O)[C@H]3COC(=O)[C@H]23)OCO4)cc(OC)c1O` [etoposide], the Minimum inhibitory concentration with S. pyogenes C721 is reported as 10^−5 Molar; in assay [4], “N”; in the assay with S. epidermidis C621, 10^−6 Molar; in the assay with E. coli UB1005 C498, “N”; in assay [5], 10^−5 Molar; in the assay on S. aureus ATCC25923 C622, 10^−5 Molar. For the same compound, the IC50 in the assay with Smooth muscle cells turned out to be 320 nM.

As to `NC(=O)NO` [hydroxyurea], the Minimum inhibitory concentration in the assay with S. pyogenes C721 is on record as 10^−4 Molar; in [4] it was 10^−4 Molar; in the assay on S. epidermidis C621, “N”; with E. coli UB1005 C498, “N”; in assay [5] it was “N”; with S. aureus ATCC25923 C622, “N”.

With `CN(Cc1cnc2nc(N)nc(N)c2n1)c1ccc(C(=O)N[C@@H](CCC(=O)O)C(=O)O)cc1` [methotrexate], the Minimum inhibitory concentration in the assay with S. pyogenes C721 is given as 10^−6 Molar; in [4] it was “N”; with S. epidermidis C621 it was “N”; with E. coli UB1005 C498 it was “N”; in [5], 10^−6 Molar; in the assay with S. aureus ATCC25923 C622, 10^−5 Molar.

Take `Nc1ncnc2c1ccn2[C@@H]1O[C@H](CO)[C@@H](O)[C@H]1O` [tubercidin]: the Minimum inhibitory concentration entry (with S. pyogenes C721; in [4]; in the assay with S. epidermidis C621; with E. coli UB1005 C498; in [5]; in the assay on S. aureus ATCC25923 C622) was “N” each time. The figures for the IC50 (in the assay with Smooth muscle cells; in assay [2]) were 30 nM and 56 nM, respectively.

Source of the values: patent publication US20090226500A1, “SUTURES AND ANTI-SCARRING AGENTS” (Angiotech Pharmaceuticals, Inc, priority 2006, published 2009).
